SMILES strings stand for the structures. *1 amine or outer side, *2 acyl side, *3 side chain or, on linkers, in order; H or OH if unused. Where a SMILES comes first, the peptide text is derived from it. Bridges are numbered along the chain shown (N, C = ends). Side-chain parts run from the residue outwards. The star is where a group is joined. C20 diacid = O=C(O)CCCCCCCCCCCCCCCCCCC(=O)*; γGlu = O=C(O)[C@H](CCC(=O)[*:2])N[*:1]

This experiment deals with T1, Amylin 3(a) receptor (human calcitonin receptor (CTa) and RAMP-3) (Homo sapiens, UniProt O60896+P30988).
T1 construct: expressed in transfected cells; host or cells: BHK570 cells, stably transfected with a CRE-luciferase reporter
T1 sequence (O60896 24-148): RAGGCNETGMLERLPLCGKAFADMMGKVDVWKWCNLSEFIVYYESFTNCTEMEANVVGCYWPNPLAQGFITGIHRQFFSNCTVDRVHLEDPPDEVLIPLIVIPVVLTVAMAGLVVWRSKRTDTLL
T1 sequence (P30988 25-474): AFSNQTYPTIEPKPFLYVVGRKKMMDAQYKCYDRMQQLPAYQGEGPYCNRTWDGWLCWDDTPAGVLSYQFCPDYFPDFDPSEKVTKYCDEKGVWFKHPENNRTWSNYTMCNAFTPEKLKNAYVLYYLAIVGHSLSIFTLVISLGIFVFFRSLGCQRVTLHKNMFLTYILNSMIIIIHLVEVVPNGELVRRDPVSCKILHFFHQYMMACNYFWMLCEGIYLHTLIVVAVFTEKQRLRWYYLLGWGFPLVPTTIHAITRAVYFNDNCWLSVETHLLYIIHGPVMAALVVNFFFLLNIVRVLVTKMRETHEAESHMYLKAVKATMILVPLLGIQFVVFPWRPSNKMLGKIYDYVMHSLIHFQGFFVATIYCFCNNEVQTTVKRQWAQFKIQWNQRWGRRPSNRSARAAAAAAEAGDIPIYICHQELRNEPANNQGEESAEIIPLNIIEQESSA
The experiment can be described thus: Luciferase assay (III), BHK Amylin 3(a)//CRE-luc cells. It counts as cell-based. The following applies: BHK cells with Amylin 3(a) receptor and CRE luciferase reporter, 4 hours incubation; read-out: Potency Luciferase. The source says:
It has previously been published (Poyner D R et al 2002, Pharmacological Reviews 54(2) 233-246) that activation of Amylin receptors (coexpression of Calcitonin receptor and receptor activity modifying peptides RAMPs) by Amylin leads to an increase in the intracellular concentration of cAMP. Consequently, transcription is activated at promoters containing multiple copies of the cAMP response element (CRE). It is thus possible to measure Amylin activity by use of a CRE luciferase reporter gene introduced into BHK cells also expressing an Amylin receptor.
2. Construction of an Amylin 3(a)/CRE-luc Cell Line
A BHK570 cell line stably transfected with the human calcitonin receptor (CTa) and a CRE-responsive luciferase reportergene. The cell line was further transfected with RAMP-3, using standard methods. This turns the Calcitonin receptor into an Amylin 3(a) receptor. Methotrexate, Neomycin, and Hygromycin are selection markers for luciferase, the Calcitonin receptor, and RAMP-3, respectively.
3. Amylin Luciferase Assay
To perform activity assays, BHK Amylin 3(a)//CRE-luc cells were seeded in white 96 well culture plates at a density of about 20,000 cells/well. The cells were in 100 μl growth medium (DMEM with 10% FBS, 1% Pen/Strep, 1 mM Na-pyruvate, 250 nM Methotrexate, 500 μg/ml Neomycin, and 400 μg/ml Hygromycin). After incubation overnight at 37° C. and 5% CO2, the growth medium was replaced by 50 μl/well assay medium (DMEM (without phenol red), Glumamax™, 10% FBS, and 10 mM Hepes, pH 7,4). Further, 50 μl/well of standard or sample in assay buffer were added. After 4 hours incubation at 37° C. and 5% CO2, the assay medium with standard or sample were removed and replaced by 100 μl/well PBS. Further, 100 μl/well LucLite™ was added. The plates were sealed and incubated at room temperature for 30 minutes. Finally, luminescence was measured on a TopCounter (Packard) in SPC (single photon counting) mode.
For orientation: A reporter such as luciferase makes a cellular process visible.

Consider `CC[C@H](C)[C@H](NC(=O)[C@@H]1CCCN1C(=O)CNC(=O)[C@H](Cc1ccccc1)NC(=O)[C@H](CC(N)=O)NC(=O)[C@H](CC(N)=O)NC(=O)[C@H](CO)NC(=O)[C@H](CO)NC(=O)[C@H](Cc1c[nH]cn1)NC(=O)[C@H](Cc1c[nH]cn1)NC(=O)[C@H](CC(C)C)NC(=O)[C@H](Cc1ccccc1)NC(=O)[C@H](CCC(=O)O)NC(=O)[C@H](C)NC(=O)[C@H](CC(C)C)NC(=O)[C@H](CCCNC(=N)N)NC(=O)[C@H](CCC(N)=O)NC(=O)[C@@H](NC(=O)[C@H](C)NC(=O)[C@@H]1CSSC[C@H](NC(=O)[C@H](CCC(=O)O)NC(=O)[C@H](CCCNC(=N)N)NC(=O)[C@H](CCC(=O)O)NC(=O)[C@H](CCC(=O)O)NC(=O)CCCCCCCCCCCCCCCCCCC(=O)O)C(=O)N[C@@H](CC(N)=O)C(=O)N[C@@H]([C@@H](C)O)C(=O)N[C@@H](C)C(=O)N[C@@H]([C@@H](C)O)C(=O)N1)[C@@H](C)O)C(=O)N[C@@H](CC(C)C)C(=O)N1CCC[C@H]1C(=O)N1CCC[C@H]1C(=O)N[C@H](C(=O)N[C@@H](CCC(=O)O)C(=O)N[C@H](C(=O)NCC(=O)N[C@@H](CO)C(=O)N[C@@H](CC(N)=O)C(=O)N[C@H](C(=O)N[C@@H](Cc1ccc(O)cc1)C(N)=O)[C@@H](C)O)C(C)C)[C@@H](C)O` [Example 1, N-alpha-(19-carboxynonadecanoyl)-Glu-Glu-Arg-[Glu1,Glu14,His17,Glu31]-pramlintide] ({C20 diacid}-EERECNTATCATQRLAEFLHHSSNNFGPILPPTEVGSNTY-NH2; disulfide 5-10), for which the EC50 was determined as 0.9 nM.

`CC[C@H](C)[C@H](NC(=O)[C@@H]1CCCN1C(=O)CNC(=O)[C@H](Cc1ccccc1)NC(=O)[C@H](CC(N)=O)NC(=O)[C@H](CC(=O)O)NC(=O)[C@H](CO)NC(=O)[C@H](CO)NC(=O)[C@H](Cc1c[nH]cn1)NC(=O)[C@H](Cc1c[nH]cn1)NC(=O)[C@H](CC(C)C)NC(=O)[C@H](Cc1ccccc1)NC(=O)[C@H](CC(N)=O)NC(=O)[C@H](C)NC(=O)[C@H](CC(C)C)NC(=O)[C@H](CCCNC(=N)N)NC(=O)[C@H](CCC(N)=O)NC(=O)[C@@H](NC(=O)[C@H](C)NC(=O)[C@@H]1CSSC[C@H](NC(=O)[C@@H](N)CCCCN)C(=O)N[C@@H](CCCCNC(=O)[C@H](CCC(=O)O)NC(=O)[C@H](CCCNC(=N)N)NC(=O)[C@H](CCC(=O)O)NC(=O)[C@H](CCC(=O)O)NC(=O)CCCCCCCCCCCCCCCCCCC(=O)O)C(=O)N[C@@H]([C@@H](C)O)C(=O)N[C@@H](C)C(=O)N[C@@H]([C@@H](C)O)C(=O)N1)[C@@H](C)O)C(=O)N[C@@H](CC(C)C)C(=O)N1CCC[C@H]1C(=O)N1CCC[C@H]1C(=O)N[C@H](C(=O)N[C@@H](CC(N)=O)C(=O)N[C@H](C(=O)NCC(=O)N[C@@H](CO)C(=O)N[C@@H](CC(N)=O)C(=O)N[C@H](C(=O)N[C@@H](Cc1ccc(O)cc1)C(N)=O)[C@@H](C)O)C(C)C)[C@@H](C)O` [Example 2, N-epsilon3-(19-carboxynonadecanoyl-Glu-Glu-Arg-Glu)-[Lys3,His17,Asp21]-pramlintide] (H-KCK([Glu-Arg-Glu-Glu-C20 diacid])TATCATQRLANFLHHSSDNFGPILPPTNVGSNTY-NH2; disulfide 2-7): the EC50 was found to be 0.9 nM. As to `CC[C@H](C)[C@H](NC(=O)[C@@H]1CCCN1C(=O)CNC(=O)[C@H](Cc1ccccc1)NC(=O)[C@H](CC(N)=O)NC(=O)[C@H](CC(=O)O)NC(=O)[C@H](CO)NC(=O)[C@H](CO)NC(=O)[C@H](Cc1c[nH]cn1)NC(=O)[C@H](Cc1c[nH]cn1)NC(=O)[C@H](CC(C)C)NC(=O)[C@H](Cc1ccccc1)NC(=O)[C@H](CC(N)=O)NC(=O)[C@H](C)NC(=O)[C@H](CC(C)C)NC(=O)[C@H](CCCNC(=N)N)NC(=O)[C@H](CCC(N)=O)NC(=O)[C@@H](NC(=O)[C@H](C)NC(=O)[C@@H]1CSSC[C@H](NC(=O)[C@@H](N)CCCCN)C(=O)N[C@@H](CCCCNC(=O)[C@H](CCC(=O)O)NC(=O)[C@H](CCC(=O)O)NC(=O)[C@H](CCC(=O)O)NC(=O)[C@H](CCC(=O)O)NC(=O)CCCCCCCCCCCCCCCCCCC(=O)O)C(=O)N[C@@H]([C@@H](C)O)C(=O)N[C@@H](C)C(=O)N[C@@H]([C@@H](C)O)C(=O)N1)[C@@H](C)O)C(=O)N[C@@H](CC(C)C)C(=O)N1CCC[C@H]1C(=O)N1CCC[C@H]1C(=O)N[C@H](C(=O)N[C@@H](CC(N)=O)C(=O)N[C@H](C(=O)NCC(=O)N[C@@H](CO)C(=O)N[C@@H](CC(N)=O)C(=O)N[C@H](C(=O)N[C@@H](Cc1ccc(O)cc1)C(N)=O)[C@@H](C)O)C(C)C)[C@@H](C)O` [Example 4, N-epsilon3-(19-carboxynonadecanoyl-Glu-Glu-Glu-Glu)-[Lys3,His17,Asp21]-pramlintide] (H-KCK([Glu-Glu-Glu-Glu-C20 diacid])TATCATQRLANFLHHSSDNFGPILPPTNVGSNTY-NH2; disulfide 2-7), the EC50 came to 2 nM. To `CC[C@H](C)[C@H](NC(=O)[C@@H]1CCCN1C(=O)CNC(=O)[C@H](Cc1ccccc1)NC(=O)[C@H](CC(N)=O)NC(=O)[C@H](CC(N)=O)NC(=O)[C@H](CO)NC(=O)[C@H](CO)NC(=O)[C@H](Cc1c[nH]cn1)NC(=O)[C@H](Cc1c[nH]cn1)NC(=O)[C@H](CC(C)C)NC(=O)[C@H](Cc1ccccc1)NC(=O)[C@H](CC(N)=O)NC(=O)[C@H](C)NC(=O)[C@H](CC(C)C)NC(=O)[C@H](CCCNC(=N)N)NC(=O)[C@H](CCC(N)=O)NC(=O)[C@@H](NC(=O)[C@H](C)NC(=O)[C@@H]1CSSC[C@H](NC(=O)[C@H](CCCNC(=N)N)NC(=O)CC[C@H](NC(=O)CCCCCCCCCCCCCCCCCCC(=O)O)C(=O)O)C(=O)N[C@@H](CC(N)=O)C(=O)N[C@@H]([C@@H](C)O)C(=O)N[C@@H](C)C(=O)N[C@@H]([C@@H](C)O)C(=O)N1)[C@@H](C)O)C(=O)N[C@@H](CC(C)C)C(=O)N1CCC[C@H]1C(=O)N1CCC[C@H]1C(=O)N[C@H](C(=O)N[C@@H](CC(N)=O)C(=O)N[C@H](C(=O)NCC(=O)N[C@@H](CO)C(=O)N[C@@H](CC(N)=O)C(=O)N[C@H](C(=O)N[C@@H](Cc1ccc(O)cc1)C(N)=O)[C@@H](C)O)C(C)C)[C@@H](C)O` [Example 6, N-alpha-[(S)-4-Carboxy-4-(19-carboxynonadecanoylamino)butyryl]-[Arg1,His17]-pramlintide] ({C20 diacid-γGlu}-RCNTATCATQRLANFLHHSSNNFGPILPPTNVGSNTY-NH2; disulfide 2-7) belongs 0.3 nM; to `CC[C@H](C)[C@H](NC(=O)[C@@H]1CCCN1C(=O)CNC(=O)[C@H](Cc1ccccc1)NC(=O)[C@H](CC(N)=O)NC(=O)[C@H](CC(N)=O)NC(=O)[C@H](CO)NC(=O)[C@H](CO)NC(=O)[C@H](Cc1c[nH]cn1)NC(=O)[C@H](Cc1c[nH]cn1)NC(=O)[C@H](CC(C)C)NC(=O)[C@H](Cc1ccccc1)NC(=O)[C@H](CC(N)=O)NC(=O)[C@H](C)NC(=O)[C@H](CC(C)C)NC(=O)[C@H](CCCNC(=N)N)NC(=O)[C@H](CCC(N)=O)NC(=O)[C@@H](NC(=O)[C@H](C)NC(=O)[C@@H]1CSSC[C@H](NC(=O)[C@H](CCCCN)NC(=O)CC[C@H](NC(=O)CCCCCCCCCCCCCCCCCCC(=O)O)C(=O)O)C(=O)N[C@@H](CC(N)=O)C(=O)N[C@@H]([C@@H](C)O)C(=O)N[C@@H](C)C(=O)N[C@@H]([C@@H](C)O)C(=O)N1)[C@@H](C)O)C(=O)N[C@@H](CC(C)C)C(=O)N1CCC[C@H]1C(=O)N1CCC[C@H]1C(=O)N[C@H](C(=O)N[C@@H](CC(N)=O)C(=O)N[C@H](C(=O)NCC(=O)N[C@@H](CO)C(=O)N[C@@H](CC(N)=O)C(=O)N[C@H](C(=O)N[C@@H](Cc1ccc(O)cc1)C(N)=O)[C@@H](C)O)C(C)C)[C@@H](C)O` [Example 7, N-alpha-[(S)-4-Carboxy-4-(19-carboxynonadecanoylamino)butyryl]-[His17]-pramlintide] ({C20 diacid-γGlu}-KCNTATCATQRLANFLHHSSNNFGPILPPTNVGSNTY-NH2; disulfide 2-7), 0.2 nM.
